This note sets out measurements from ChEMBL document CHEMBL1201862, “PubChem BioAssay data set” (2004).

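Grown in 96-well plates, cells were treated for 48 hours with each compound at five concentrations. Insufficient inhibition: endpoint recorded as highest concentration tested. GI50 marks 50% less growth.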 Activity calls are given as the source filed them. No stated cut-off is given here; in the data, active = GI50 up to about 1.1 µM and inactive = higher.

Some test systems named below: COLO 205; HCT-15; A498; SF-268; ACHN; HOP-62; NCI-H460; SF-295; NCI-H23; HT-29; U-251; KM12; EKVX; HL-60; HCC 2998; OVCAR-4; MOLT-4; CCRF-CEM; CAKI-1; OVCAR-5.
Holding throughout (assay): NCI tumour cell line growth inhibition, 48 h

On to `CCNc1cnc2c(n1)c(=O)n(C)c(=O)n2C`, for which the GI50 with COLO 205 is > 100 µM (inactive); in the test with HCT-15, greater than 100 µM; in the test on A498, > 100 µM (inactive); in the test on SF-268, > 100 µM (inactive); in the test with ACHN, > 100 µM (inactive); with HOP-62, > 100 µM (inactive). The GI50 in the test with NCI-H460, in the test on SF-295, with NCI-H23, with HT-29, with U-251 and in the test with KM12 was > 100 µM (inactive) each time. Moreover, the GI50 in the test on EKVX is 34.1 µM (inactive); with HL-60, > 100 µM (inactive); with HCC 2998, > 100 µM (inactive); with OVCAR-4, > 100 µM (inactive); with MOLT-4, > 100 µM (inactive); in the test on CCRF-CEM it was > 100 µM (inactive). Moreover, the GI50 in the test on CAKI-1 and in the test with OVCAR-5 was > 100 µM (inactive) in each case.

For `CNS(=O)(=O)NN(C)S(=O)(=O)c1ccc(F)cc1`, the GI50 with COLO 205 was > 100 µM (inactive); in the test with HCT-15 it was greater than 100 µM; in the test on A498, > 100 µM (inactive); in the test with SF-268, > 100 µM (inactive); with ACHN it was > 100 µM (inactive); in the test with HOP-62, > 100 µM (inactive). The GI50 in the test with NCI-H460 was 40.7 µM (inactive); in the test with SF-295 it was > 100 µM (inactive); in the test on NCI-H23, > 100 µM (inactive); with HT-29, > 100 µM (inactive); with U-251, > 100 µM (inactive); with KM12, > 100 µM (inactive). Also, the GI50 with EKVX, with HL-60, in the test on HCC 2998, with OVCAR-4, with MOLT-4 and in the test on CCRF-CEM was > 100 µM (inactive) each time. The GI50 with CAKI-1 and in the test on OVCAR-5 was > 100 µM (inactive) throughout.

Regarding `Cc1cc(C)n(-c2c(O)ccc(O)c2-n2nc(C)cc2C)n1`, the GI50 in the test on COLO 205 is > 100 µM (inactive); with HCT-15, greater than 100 µM; with A498, > 100 µM (inactive); in the test with SF-268 it was > 100 µM (inactive); with ACHN, > 100 µM (inactive); with HOP-62 it was > 100 µM (inactive). Further, the GI50 is > 100 µM (inactive) with NCI-H460; 81.3 µM (inactive) in the test with SF-295; > 100 µM (inactive) in the test with NCI-H23; > 100 µM (inactive) in the test with HT-29; > 100 µM (inactive) in the test on U-251; > 100 µM (inactive) in the test with KM12. Further, the GI50 with EKVX, with HL-60, with HCC 2998, in the test with OVCAR-4, with MOLT-4 and in the test with CCRF-CEM was > 100 µM (inactive) each time. Further, the GI50 in the test with CAKI-1 and in the test with OVCAR-5 was > 100 µM (inactive) throughout.

On to `CN(CCCNc1ccc2ncn3c4ccccc4c(=O)c1c23)CCCN1C(=O)c2cccc3cc([N+](=O)[O-])cc(c23)C1=O`, for which the GI50 was 0.00815 µM (active) in the test on COLO 205; 0.0153 µM in the test with HCT-15; 1.4 µM (inactive) in the test on A498; 0.0247 µM (active) in the test on SF-268; 0.0012 µM (active) with ACHN; 0.0472 µM (active) in the test with HOP-62. The GI50 was 0.00295 µM (active) in the test on NCI-H460; 0.0134 µM (active) with SF-295; 0.0208 µM (active) in the test on NCI-H23; 0.00149 µM (active) in the test with HT-29; 0.00966 µM (active) with U-251; 0.0292 µM (active) in the test with KM12. The GI50 in the test with EKVX is 0.0561 µM (active); in the test with HL-60, 0.0358 µM (active); in the test with HCC 2998 it was 0.0115 µM (active); in the test with OVCAR-4, 0.131 µM (active); in the test with MOLT-4, 0.00565 µM (active); in the test with CCRF-CEM, 0.0614 µM (active). The GI50 in the test on CAKI-1 is 0.029 µM (active); in the test on OVCAR-5, 1.14 µM (inactive).

With `CNC1=C(C)C(=O)C2=C(C1=O)C(COC(N)=O)C1(OC)C3NC3CN21` (stereo not drawn), the GI50 was 0.187 µM (active) with COLO 205; 0.391 µM in the test with HCT-15; 0.632 µM (active) in the test on A498; 0.783 µM (active) in the test on SF-268; 0.16 µM (active) in the test with ACHN; 0.092 µM (active) with HOP-62. The GI50 with NCI-H460 is < 0.01 µM (active); in the test with SF-295, 0.0853 µM (active); in the test with NCI-H23, 0.105 µM (active); with HT-29, 0.207 µM (active); in the test with U-251, 0.883 µM (active); with KM12 it was 0.413 µM (active). The GI50 in the test on EKVX is 22 µM (inactive); with HL-60 it was 2.02 µM (inactive); in the test with HCC 2998, 0.313 µM (active); with OVCAR-4, 2.95 µM (inactive); in the test on MOLT-4, 3.68 µM (inactive); in the test on CCRF-CEM it was 4.19 µM (inactive). Further, the GI50 in the test with CAKI-1 is 0.0653 µM (active); with OVCAR-5, 4.91 µM (inactive).

`CC1(C)O[C@@H](C[C@]2(C#N)C[C@H](CCl)OC(C)(C)O2)C[C@@H](C#N)O1`: the GI50 in the test with COLO 205 was > 100 µM (inactive); with HCT-15 it was greater than 100 µM; in the test on A498, > 100 µM (inactive); with SF-268, > 100 µM (inactive); in the test with ACHN it was > 100 µM (inactive); in the test with HOP-62 it was > 100 µM (inactive). In addition, the GI50 in the test on NCI-H460, in the test on SF-295, with NCI-H23, with HT-29, in the test with U-251 and in the test with KM12 was > 100 µM (inactive) throughout. Further, the GI50 in the test with EKVX, in the test on HL-60, with HCC 2998, in the test on OVCAR-4, with MOLT-4 and in the test with CCRF-CEM was > 100 µM (inactive) each time. For the same compound, the GI50 in the test on CAKI-1 and with OVCAR-5 was > 100 µM (inactive) in each case.

On to `O=C1C(=O)c2ccccc2C=C1[N+](=O)[O-]`, for which the GI50 in the test on COLO 205 is > 100 µM (inactive); with HCT-15 it was 32.7 µM; in the test on A498 it was > 100 µM (inactive); in the test on SF-268, 38.3 µM (inactive); in the test on ACHN it was > 100 µM (inactive); in the test with HOP-62, > 100 µM (inactive). Moreover, the GI50 in the test on NCI-H460 is 30.2 µM (inactive); in the test on SF-295 it was 97.3 µM (inactive); with NCI-H23, 34.2 µM (inactive); in the test on HT-29, > 100 µM (inactive); in the test on U-251, 40.1 µM (inactive); with KM12, 70.3 µM (inactive). Also, the GI50 in the test with EKVX was 19.3 µM (inactive); in the test on HL-60, 22.7 µM (inactive); in the test with HCC 2998, 80.9 µM (inactive); in the test with OVCAR-4 it was 31.3 µM (inactive); in the test with MOLT-4, 29.3 µM (inactive); with CCRF-CEM it was 27.9 µM (inactive). Besides, the GI50 in the test on CAKI-1 is 87.9 µM (inactive); with OVCAR-5, > 100 µM (inactive).

Consider `C=C1C[C@@H]2C[C@@H](C)CC(O)[C@]2(CCCN)C1O` (stereo partly drawn), for which the GI50 with COLO 205, in the test on A498, with SF-268, with ACHN, with HOP-62 and in the test with NCI-H460 was > 100 µM (inactive) in each case. The GI50 in the test on SF-295, in the test on NCI-H23, in the test with HT-29, in the test with U-251, with KM12 and with EKVX was > 100 µM (inactive) each time. The GI50 in the test with HL-60, in the test with HCC 2998, in the test on OVCAR-4, with MOLT-4, in the test with CCRF-CEM and in the test with CAKI-1 was > 100 µM (inactive) each time. Moreover, the GI50 in the test on OVCAR-5 is > 100 µM (inactive).

Regarding `COc1cc(O)c2c(c1)C(=O)c1cc(C)cc(O)c1C2=O` [PHYSCION], the GI50 with COLO 205, in the test with A498, in the test on SF-268, with ACHN, in the test with HOP-62 and in the test with NCI-H460 was > 100 µM (inactive) throughout. Besides, the GI50 with SF-295, in the test with NCI-H23, in the test with HT-29, with U-251, with KM12 and in the test on EKVX was > 100 µM (inactive) throughout. The GI50 in the test on HL-60, in the test on HCC 2998, in the test with OVCAR-4, with MOLT-4, in the test on CCRF-CEM and in the test on CAKI-1 was > 100 µM (inactive) in each case. In addition, the GI50 in the test on OVCAR-5 is > 100 µM (inactive).
